The assay has as its target 4-aminobutyrate aminotransferase, mitochondrial (Homo sapiens) (UniProt P80404). The assay is described as follows: Inhibition of GABA-AT (unknown origin). The note with it: concentration not given here. Also on record: concentration or dose not given beside the values.
Chain of 4-aminobutyrate aminotransferase, mitochondrial (Homo sapiens) (P80404 whole entry): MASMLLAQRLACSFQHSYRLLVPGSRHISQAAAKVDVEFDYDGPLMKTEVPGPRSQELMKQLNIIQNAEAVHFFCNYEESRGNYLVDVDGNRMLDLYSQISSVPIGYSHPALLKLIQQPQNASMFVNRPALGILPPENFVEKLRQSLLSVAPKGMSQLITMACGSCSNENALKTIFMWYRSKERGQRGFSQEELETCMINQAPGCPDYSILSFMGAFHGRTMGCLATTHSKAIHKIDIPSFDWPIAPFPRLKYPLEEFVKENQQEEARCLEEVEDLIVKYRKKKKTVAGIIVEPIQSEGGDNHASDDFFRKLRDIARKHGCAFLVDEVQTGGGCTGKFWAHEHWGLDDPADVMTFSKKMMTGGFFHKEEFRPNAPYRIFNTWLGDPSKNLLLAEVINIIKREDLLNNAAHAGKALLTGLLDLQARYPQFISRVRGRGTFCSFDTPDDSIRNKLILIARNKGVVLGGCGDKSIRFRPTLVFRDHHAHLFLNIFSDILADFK
In general, inhibition refers to the change of the read-out against control, counted positive when it falls. Take `N/N=C/Cc1ccc(Cl)cc1Cl`: the inhibition was found to be 59%.
Under `COc1ccc(C/C=N/N)cc1` stands 66.6%; under `N/N=C/Cc1ccc(Cl)cc1`, 54.2%; under `N/N=C/Cc1ccccc1F`, 62.9%.
For `N/N=C/Cc1ccc(C(F)(F)F)cc1` the value was 33.2%; for `N/N=C/Cc1ccc(F)cc1`, 61.6%; for `N/N=C/Cc1ccccc1`, 75.4%.
`COc1ccccc1C/C=N/N` gave an inhibition of 60.1%.
For `Cc1ccc(C/C=N/N)cc1` the value was 70.4%; for `N/N=C/Cc1cccc(F)c1`, 72.5%; for `Cc1cccc(C/C=N/N)c1`, 75.4%.
For `Cc1ccccc1C/C=N/N` the value was 51.3%; for `N/N=C/Cc1ccccc1Cl`, 56.1%; for `N/N=C/Cc1ccccc1C(F)(F)F`, 46.3%.
Under `N/N=C/Cc1cccc(Cl)c1` stands 74.9%; under `COc1cccc(C/C=N/N)c1`, 77.6%; under `N/N=C/Cc1cccc(C(F)(F)F)c1`, 76%.

These data come from ChEMBL document CHEMBL3045361, “Novel GABA-AT inhibitors: QSAR and docking based virtual screening of phenyl substituted -phenyl ethylidene hydrazine analogues” (Med Chem Res, 2011).
